Laboratory results as given in ChEMBL document CHEMBL1201862, “PubChem BioAssay data set” (2004).
Active and inactive are the calls of the source.

Key:
SUMO-activating enzyme [1] = target: T1, SUMO-activating enzyme (Homo sapiens, UniProt Q9UBT2); assay: blockers of UBC9-mediated SUMO conjugation – biochemical, AlphaScreen, SUMOylation inhibitor project, confirmation (AID 2018); type: functional
SUMO-activating enzyme [2] = target: T1, SUMO-activating enzyme; assay: blockers of SAE1/SAE2–UBC9 SUMO transfer – biochemical, HTRF, uHTS, primary screen (AID 2006); type: protein-complex assay
[3] = HEK-293T cell viability reduction – luminescence, B-cell screen hits, cytotoxicity control for BCR NF-kB inhibitor project, dose response (AID 489021); type: functional, cell-based;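 further: HEK-293T cells carrying an NF-kB luciferase reporter; cells exposed to compound for about 14 hours before viability readout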
[4] = target: 26S proteasome non-ATPase regulatory subunit 14 (Homo sapiens, UniProt O00487); assay: inhibition of proteasome subunit RPN11 – biochemical, fluorescence polarization, uHTS hits, confirmation (AID 602368); type: functional
Chain of 26S proteasome non-ATPase regulatory subunit 14 (O00487 whole entry): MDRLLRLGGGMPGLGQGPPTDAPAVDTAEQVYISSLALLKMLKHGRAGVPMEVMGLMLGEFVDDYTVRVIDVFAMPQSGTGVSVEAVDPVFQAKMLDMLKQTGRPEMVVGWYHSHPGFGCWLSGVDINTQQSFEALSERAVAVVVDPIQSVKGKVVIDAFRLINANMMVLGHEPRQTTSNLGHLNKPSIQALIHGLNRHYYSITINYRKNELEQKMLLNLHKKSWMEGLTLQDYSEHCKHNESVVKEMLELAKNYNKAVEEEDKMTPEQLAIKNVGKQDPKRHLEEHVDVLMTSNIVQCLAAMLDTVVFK

[5] = target: 72 kDa type IV collagenase (Homo sapiens, UniProt P08253); assay: Dose Response validation of uHTS RPN11 inhibitor hits using a MMP-2 Fluorescence assay.; type: functional
Chain of 72 kDa type IV collagenase (P08253 whole entry): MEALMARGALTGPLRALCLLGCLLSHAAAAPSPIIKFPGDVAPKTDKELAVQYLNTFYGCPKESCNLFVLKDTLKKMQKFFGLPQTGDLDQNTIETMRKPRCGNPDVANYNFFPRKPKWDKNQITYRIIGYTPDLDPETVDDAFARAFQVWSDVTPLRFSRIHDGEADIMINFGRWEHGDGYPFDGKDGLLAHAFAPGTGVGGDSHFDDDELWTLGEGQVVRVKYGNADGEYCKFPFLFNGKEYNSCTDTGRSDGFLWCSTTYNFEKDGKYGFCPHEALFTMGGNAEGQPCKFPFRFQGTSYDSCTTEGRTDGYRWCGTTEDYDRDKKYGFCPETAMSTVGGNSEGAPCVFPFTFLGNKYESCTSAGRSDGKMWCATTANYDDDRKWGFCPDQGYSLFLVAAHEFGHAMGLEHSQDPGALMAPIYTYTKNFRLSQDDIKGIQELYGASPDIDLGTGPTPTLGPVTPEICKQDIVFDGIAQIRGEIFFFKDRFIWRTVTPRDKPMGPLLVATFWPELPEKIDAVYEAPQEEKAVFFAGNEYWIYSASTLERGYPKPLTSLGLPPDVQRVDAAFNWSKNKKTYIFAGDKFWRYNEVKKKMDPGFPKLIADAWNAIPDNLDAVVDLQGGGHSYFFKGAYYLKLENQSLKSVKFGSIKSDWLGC

Prothrombin = Prothrombin (Bos taurus, UniProt P00735); assay: thrombin protease inhibitors – biochemical, fluorescence polarization, uHTS hits, dose response (AID 602369); type: functional
[6] = target: Protein disulfide-isomerase (Homo sapiens, UniProt P07237); assay: inhibition of PDI-driven insulin aggregation – biochemical, turbidity, absorbance, cherry-picked samples, dose response (AID 602350); type: functional
Chain of Protein disulfide-isomerase (P07237 whole entry): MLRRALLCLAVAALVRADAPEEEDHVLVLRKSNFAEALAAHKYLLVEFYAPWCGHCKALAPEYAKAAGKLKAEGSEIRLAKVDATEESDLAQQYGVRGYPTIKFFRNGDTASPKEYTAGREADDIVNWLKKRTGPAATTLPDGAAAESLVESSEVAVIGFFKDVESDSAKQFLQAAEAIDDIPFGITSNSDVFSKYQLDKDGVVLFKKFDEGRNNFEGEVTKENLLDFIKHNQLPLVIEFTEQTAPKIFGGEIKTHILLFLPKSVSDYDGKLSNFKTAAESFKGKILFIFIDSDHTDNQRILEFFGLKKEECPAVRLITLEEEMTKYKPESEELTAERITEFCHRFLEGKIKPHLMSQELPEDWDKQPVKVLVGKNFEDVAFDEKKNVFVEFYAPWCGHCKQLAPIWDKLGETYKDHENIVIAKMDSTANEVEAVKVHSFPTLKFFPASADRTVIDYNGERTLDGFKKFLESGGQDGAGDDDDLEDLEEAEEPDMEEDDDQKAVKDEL

[7] = target: T2, Sentrin-specific protease 8 (Homo sapiens, UniProt Q96LD8); assay: inhibition of human SENP8 cleavage activity – biochemical, luminescence, SAR follow-up (AID 504501); type: functional
T2 sequence (Q96LD8 whole entry): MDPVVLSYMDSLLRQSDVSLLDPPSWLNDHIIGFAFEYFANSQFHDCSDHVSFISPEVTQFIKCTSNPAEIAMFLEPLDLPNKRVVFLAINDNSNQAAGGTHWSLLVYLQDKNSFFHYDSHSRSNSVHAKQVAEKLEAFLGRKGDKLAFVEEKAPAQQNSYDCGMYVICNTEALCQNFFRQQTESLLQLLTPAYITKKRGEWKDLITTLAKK

Caspase-3 = target: T3, Caspase-3 (Homo sapiens, UniProt P42574); assay: SAR Analysis of small molecule inhibitors of Sentrin-specific proteases (SENPs) using a Caspase-3 Selectivity assay. [Related pubchem assays (depositor defined):AID2540, AID2599, AID434973, AID489001]; type: functional
T3 sequence (P42574 whole entry): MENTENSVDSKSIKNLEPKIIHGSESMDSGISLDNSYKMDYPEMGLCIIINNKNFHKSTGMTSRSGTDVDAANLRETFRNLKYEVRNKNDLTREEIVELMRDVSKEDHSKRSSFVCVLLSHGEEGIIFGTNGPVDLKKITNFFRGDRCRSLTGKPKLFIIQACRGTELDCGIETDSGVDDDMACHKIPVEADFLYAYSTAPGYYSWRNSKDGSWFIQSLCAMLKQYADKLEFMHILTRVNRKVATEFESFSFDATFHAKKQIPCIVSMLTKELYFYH

[8] = target: T4, Sentrin-specific protease 6 (Homo sapiens, UniProt Q9GZR1); assay: SAR Analysis of small molecule inhibitors of Sentrin-specific protease 6 (SENP6) using a Luminescent assay. [Related pubchem assays (depositor defined):AID2582, AID2599]; type: functional
T4 sequence (Q9GZR1 whole entry): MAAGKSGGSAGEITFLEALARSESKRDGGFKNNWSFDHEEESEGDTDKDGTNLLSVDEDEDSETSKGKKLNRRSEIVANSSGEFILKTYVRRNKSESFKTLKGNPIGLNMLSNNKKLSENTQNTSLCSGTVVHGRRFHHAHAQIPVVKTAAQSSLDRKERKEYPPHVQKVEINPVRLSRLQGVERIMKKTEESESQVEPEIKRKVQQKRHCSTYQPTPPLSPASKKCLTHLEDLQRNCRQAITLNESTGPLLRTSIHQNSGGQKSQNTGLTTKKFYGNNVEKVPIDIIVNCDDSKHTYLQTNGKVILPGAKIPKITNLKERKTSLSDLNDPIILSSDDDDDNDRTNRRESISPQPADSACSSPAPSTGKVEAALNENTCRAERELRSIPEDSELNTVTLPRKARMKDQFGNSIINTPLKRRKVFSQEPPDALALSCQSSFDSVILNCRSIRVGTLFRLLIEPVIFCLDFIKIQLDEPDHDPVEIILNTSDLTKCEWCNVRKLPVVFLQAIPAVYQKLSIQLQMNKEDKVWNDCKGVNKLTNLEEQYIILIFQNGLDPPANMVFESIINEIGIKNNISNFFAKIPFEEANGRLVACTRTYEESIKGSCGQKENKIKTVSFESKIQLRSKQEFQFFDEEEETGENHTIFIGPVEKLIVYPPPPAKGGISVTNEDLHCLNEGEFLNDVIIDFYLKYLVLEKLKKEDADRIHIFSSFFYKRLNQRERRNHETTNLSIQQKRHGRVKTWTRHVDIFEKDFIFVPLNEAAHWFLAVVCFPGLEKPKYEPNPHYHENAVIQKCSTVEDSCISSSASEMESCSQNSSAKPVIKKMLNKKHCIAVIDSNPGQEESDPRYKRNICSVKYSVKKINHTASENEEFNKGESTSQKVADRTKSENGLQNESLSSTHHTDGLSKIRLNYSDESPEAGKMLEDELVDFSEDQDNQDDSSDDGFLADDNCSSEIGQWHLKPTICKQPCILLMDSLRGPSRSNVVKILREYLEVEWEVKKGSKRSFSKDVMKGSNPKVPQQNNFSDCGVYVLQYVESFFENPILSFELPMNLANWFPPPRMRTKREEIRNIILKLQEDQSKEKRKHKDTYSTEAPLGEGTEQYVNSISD

[9] = target: T5, Sentrin-specific protease 7 (Homo sapiens, UniProt Q9BQF6); assay: inhibition of human SENP7 cleavage activity – biochemical, luminescence, SAR follow-up (AID 504497); type: functional
T5 sequence (Q9BQF6 whole entry): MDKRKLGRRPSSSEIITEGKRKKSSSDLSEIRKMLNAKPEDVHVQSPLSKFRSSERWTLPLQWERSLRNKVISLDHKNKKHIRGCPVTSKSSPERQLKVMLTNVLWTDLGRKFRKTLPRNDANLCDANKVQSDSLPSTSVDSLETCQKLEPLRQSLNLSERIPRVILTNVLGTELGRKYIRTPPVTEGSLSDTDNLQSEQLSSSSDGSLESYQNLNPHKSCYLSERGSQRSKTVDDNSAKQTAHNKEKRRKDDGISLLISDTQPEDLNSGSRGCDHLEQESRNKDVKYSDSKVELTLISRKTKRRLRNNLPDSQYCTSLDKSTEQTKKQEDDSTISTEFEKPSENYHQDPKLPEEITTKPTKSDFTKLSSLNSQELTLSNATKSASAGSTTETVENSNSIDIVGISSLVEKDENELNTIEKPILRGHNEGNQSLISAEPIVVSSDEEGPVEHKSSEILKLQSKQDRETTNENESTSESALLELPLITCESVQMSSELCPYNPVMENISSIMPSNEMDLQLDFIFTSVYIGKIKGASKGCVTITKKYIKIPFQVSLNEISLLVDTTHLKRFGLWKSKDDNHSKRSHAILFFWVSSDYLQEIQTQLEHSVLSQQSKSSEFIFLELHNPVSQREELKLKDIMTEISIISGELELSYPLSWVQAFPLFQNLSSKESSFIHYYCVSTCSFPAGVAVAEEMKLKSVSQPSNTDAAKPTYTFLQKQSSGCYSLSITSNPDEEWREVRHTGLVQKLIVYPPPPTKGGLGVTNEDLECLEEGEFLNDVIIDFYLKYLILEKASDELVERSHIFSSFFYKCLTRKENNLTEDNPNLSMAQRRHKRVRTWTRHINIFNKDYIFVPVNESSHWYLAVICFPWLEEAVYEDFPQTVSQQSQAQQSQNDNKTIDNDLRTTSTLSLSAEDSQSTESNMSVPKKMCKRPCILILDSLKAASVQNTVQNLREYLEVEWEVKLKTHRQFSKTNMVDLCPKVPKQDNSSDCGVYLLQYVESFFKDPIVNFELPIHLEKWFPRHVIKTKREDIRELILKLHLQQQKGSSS

[10] = target: DNA dC->dU-editing enzyme APOBEC-3G (Homo sapiens, UniProt Q9HC16); assay: inhibition of APOBEC3G ssDNA deamination – biochemical, fluorescence, single-stranded DNA substrate, SAR follow-up (AID 602136); type: functional; conditions: read-out: IC50_Mean
Chain of DNA dC->dU-editing enzyme APOBEC-3G (Q9HC16 whole entry): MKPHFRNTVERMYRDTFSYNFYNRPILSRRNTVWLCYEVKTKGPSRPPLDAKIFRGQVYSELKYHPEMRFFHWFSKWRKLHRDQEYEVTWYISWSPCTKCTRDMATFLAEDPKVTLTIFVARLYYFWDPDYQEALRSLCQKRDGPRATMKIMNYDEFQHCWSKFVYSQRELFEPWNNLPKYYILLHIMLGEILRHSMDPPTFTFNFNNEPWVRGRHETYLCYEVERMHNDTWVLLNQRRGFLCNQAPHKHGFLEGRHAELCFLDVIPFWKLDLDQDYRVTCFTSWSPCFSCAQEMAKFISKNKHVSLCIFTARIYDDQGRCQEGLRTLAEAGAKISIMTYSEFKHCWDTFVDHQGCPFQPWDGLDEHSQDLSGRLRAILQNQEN

[11] = target: DNA dC->dU-editing enzyme APOBEC-3A (Homo sapiens, UniProt P31941); assay: SAR analysis of small molecule inhibitors of APOBEC3A DNA Deaminase via a fluorescence-based single-stranded DNA deaminase assay.; type: functional; conditions: read-out: IC50_Mean
Chain of DNA dC->dU-editing enzyme APOBEC-3A (P31941 whole entry): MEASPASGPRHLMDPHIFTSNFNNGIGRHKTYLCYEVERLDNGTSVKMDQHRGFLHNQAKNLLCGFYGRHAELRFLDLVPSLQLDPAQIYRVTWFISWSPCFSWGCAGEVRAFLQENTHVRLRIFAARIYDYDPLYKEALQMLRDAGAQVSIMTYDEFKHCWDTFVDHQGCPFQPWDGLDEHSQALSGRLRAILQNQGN

[12] = Trypanosoma cruzi growth suppression in host cells – NIH3T3 host cells, beta-gal luminescence, confirmation (AID 2044); type: functional, cell-based;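 further: intracellular parasites grown in NIH/3T3 mouse fibroblasts as host cells; luminescent beta-galactosidase reporter signal from transgenic T. cruzi replicating inside host cells; inhibitors lower the luminescence signal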
[13] = NIH3T3 cell viability loss – ATP luminescence, mouse fibroblasts, counter-screen, dose response (AID 2010); type: functional, cell-based;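 further: cells exposed to compound for about 90 hours before reading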
[14] = target: Eukaryotic translation initiation factor 4E (Mus musculus, UniProt P63073); assay: blockers of eIF4G binding by eIF4E – biochemical, TR-FRET, dose response (AID 855); type: functional;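 further: potency for disrupting eIF4E binding to eIF4GI seen as loss of FRET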
Chain of Eukaryotic translation initiation factor 4E (P63073 whole entry): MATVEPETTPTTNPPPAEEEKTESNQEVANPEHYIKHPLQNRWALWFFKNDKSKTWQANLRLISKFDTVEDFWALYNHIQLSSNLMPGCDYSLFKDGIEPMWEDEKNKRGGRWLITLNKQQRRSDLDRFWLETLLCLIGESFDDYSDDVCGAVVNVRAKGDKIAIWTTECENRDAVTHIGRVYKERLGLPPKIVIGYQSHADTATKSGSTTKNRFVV

Insulin-degrading enzyme [15] = target: T6, Insulin-degrading enzyme (Homo sapiens, UniProt P14735); assay: recombinant IDE activation, cell-free – biochemical, fluorescence polarization, counter-screen for IDE activator project, dose response (AID 588681)
T6 sequence (P14735 whole entry): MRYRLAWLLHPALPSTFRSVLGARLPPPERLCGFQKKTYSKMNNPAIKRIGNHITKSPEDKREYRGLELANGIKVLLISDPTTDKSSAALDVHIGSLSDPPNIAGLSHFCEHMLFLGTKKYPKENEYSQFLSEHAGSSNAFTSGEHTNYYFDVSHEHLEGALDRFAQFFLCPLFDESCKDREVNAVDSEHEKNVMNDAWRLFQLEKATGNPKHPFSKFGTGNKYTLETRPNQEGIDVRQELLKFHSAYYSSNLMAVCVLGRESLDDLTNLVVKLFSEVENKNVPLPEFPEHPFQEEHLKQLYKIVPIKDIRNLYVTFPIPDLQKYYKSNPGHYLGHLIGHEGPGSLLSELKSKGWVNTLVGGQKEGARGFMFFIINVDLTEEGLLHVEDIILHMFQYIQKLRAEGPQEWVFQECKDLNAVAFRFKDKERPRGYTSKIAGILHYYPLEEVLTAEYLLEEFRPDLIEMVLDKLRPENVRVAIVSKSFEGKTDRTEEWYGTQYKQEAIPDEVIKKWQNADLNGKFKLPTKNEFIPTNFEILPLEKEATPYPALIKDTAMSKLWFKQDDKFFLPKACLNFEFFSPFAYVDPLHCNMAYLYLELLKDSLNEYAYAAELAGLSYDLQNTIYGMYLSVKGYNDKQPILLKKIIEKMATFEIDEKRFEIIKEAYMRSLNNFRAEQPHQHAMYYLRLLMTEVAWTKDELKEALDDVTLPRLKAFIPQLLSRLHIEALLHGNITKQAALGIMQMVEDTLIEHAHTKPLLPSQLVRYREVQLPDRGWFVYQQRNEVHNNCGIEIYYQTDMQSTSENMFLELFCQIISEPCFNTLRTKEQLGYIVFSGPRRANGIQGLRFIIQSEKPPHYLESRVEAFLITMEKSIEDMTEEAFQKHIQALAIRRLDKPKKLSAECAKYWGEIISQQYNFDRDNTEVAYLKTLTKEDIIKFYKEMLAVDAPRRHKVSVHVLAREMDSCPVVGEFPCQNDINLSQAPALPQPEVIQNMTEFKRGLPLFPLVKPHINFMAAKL

Insulin-degrading enzyme [16] = target: T6, Insulin-degrading enzyme; assay: cellular IDE activation of Abeta substrate cleavage – fluorescence polarization, HEK cells, dose response (AID 588439); type: functional, cell-based
HEK293 [17] = assay: membrane integrity loss in HEK cells – cell-based, fluorescence, cytotoxicity control for IDE activator project, dose response (AID 588440); type: functional; conditions: Homo sapiens;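 further: cytotoxicity by LDH release measuring loss of membrane integrity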
HEK293 [18] = assay: optical interference in Abeta FP readout, dose response, artefact control for IDE activator project, biochemical, fluorescence polarization (AID 588442); type: functional, cell-based; conditions: Homo sapiens

T1 sequence (Q9UBE0 whole entry): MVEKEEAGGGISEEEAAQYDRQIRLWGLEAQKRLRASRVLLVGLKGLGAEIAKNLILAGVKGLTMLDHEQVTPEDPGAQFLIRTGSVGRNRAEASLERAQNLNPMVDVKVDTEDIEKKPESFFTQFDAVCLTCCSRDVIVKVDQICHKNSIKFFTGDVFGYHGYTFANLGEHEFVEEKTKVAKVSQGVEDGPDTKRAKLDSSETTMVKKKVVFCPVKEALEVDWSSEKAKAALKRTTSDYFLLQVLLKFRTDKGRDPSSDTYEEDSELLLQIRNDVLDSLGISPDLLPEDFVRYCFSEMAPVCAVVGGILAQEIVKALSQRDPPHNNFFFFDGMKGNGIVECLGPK
T1 sequence (Q9UBT2 whole entry): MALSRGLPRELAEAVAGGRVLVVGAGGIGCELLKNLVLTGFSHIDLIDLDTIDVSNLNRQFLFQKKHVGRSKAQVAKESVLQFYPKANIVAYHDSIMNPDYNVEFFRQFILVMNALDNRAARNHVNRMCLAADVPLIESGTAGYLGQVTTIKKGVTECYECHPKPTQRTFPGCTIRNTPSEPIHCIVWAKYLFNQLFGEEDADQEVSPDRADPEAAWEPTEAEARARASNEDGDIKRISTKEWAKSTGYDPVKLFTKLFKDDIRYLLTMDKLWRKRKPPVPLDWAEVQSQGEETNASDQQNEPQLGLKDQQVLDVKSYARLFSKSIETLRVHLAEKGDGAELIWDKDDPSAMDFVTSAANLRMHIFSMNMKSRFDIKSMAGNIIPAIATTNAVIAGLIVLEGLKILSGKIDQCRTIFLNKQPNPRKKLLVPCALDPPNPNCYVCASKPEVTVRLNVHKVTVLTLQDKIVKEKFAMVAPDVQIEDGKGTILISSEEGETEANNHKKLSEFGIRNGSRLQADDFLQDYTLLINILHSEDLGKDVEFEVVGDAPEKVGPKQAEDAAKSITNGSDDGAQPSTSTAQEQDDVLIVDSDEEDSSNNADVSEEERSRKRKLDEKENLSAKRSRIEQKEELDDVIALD

CCc1ccc(/C=C2/SC(=S)N(CCC(=O)Nc3ccc(C(=O)O)cc3)C2=O)cc1
IC50 (SUMO-activating enzyme [1]): 4.15 µM (active) | IC50 (SUMO-activating enzyme [2]): 14.1 µM (active) | IC50 [3]: > 80 µM (inactive) | IC50 [4]: 18.1 µM (active) | IC50 [5]: > 100 µM (inactive) | IC50 (Prothrombin): 51.7 µM (active)

NNC(=O)c1cc(-c2ccc(O)cc2)nc2ccc(Br)cc12
AC50 [6]: 19.5 µM (active)

Cc1ccc(Cl)c2sc(NC(=O)c3ccc(S(=O)(=O)N4CC(C)CC(C)C4)cc3)nc12 (centres undefined)
IC50 [7]: > 99 µM (inactive) | IC50 (Caspase-3): > 99 µM (inactive) | IC50 [8]: > 99 µM (inactive) | IC50 [9]: > 99 µM (inactive)

Cc1cccc(-c2nc(/C=C/c3ccc(F)cc3)no2)c1
IC50 [7]: > 99 µM (inactive) | IC50 (Caspase-3): > 99 µM (inactive) | IC50 [8]: > 99 µM (inactive) | IC50 [9]: > 99 µM (inactive)

CCCc1nnc2c3c4c(sc3ncn12)CCCC4
IC50 [10]: > 99 µM (inactive) | IC50 [11]: > 99 µM (inactive)

CCN1CCN(CCNC(=O)c2ccc(/C=C3/Sc4ccccc4N(Cc4cccc(Cl)c4)C3=O)cc2)CC1
EC50 [12]: 1.41 µM (active) | EC50 [13]: 8.47 µM (active) | IC50 [14]: 50 µM (inactive) | EC50 (Insulin-degrading enzyme [15]): 53.4 µM (inactive) | EC50 (Insulin-degrading enzyme [16]): > 54.7 µM (inactive) | IC50 (HEK293 [17]): 19.5 µM (inactive) | EC50 (HEK293 [18]): > 55.9 µM (inactive)
